Assay results taken from US8288419B2, “Aminopyrazole derivatives” (Actelion Pharmaceuticals, Ltd, priority 2007, dated 2012).
pEC50: −log10 of the molar value.

target: T1, recombinant human ALX receptor (Homo sapiens, UniProt P25090); experiment: Intracellular calcium measurements (FLIPR), ALX receptor agonistic activity; type: cell-based; conditions: HEK293-hALXR-Gα16 cells, Fluo-4 calcium fluorescence, normalized to 10 nM WKYMVm
T1 construct: expressed in transfected cells; host or cells: HEK293 (HEK293-hALXR-Gα16)
T1 sequence (P25090 1-351): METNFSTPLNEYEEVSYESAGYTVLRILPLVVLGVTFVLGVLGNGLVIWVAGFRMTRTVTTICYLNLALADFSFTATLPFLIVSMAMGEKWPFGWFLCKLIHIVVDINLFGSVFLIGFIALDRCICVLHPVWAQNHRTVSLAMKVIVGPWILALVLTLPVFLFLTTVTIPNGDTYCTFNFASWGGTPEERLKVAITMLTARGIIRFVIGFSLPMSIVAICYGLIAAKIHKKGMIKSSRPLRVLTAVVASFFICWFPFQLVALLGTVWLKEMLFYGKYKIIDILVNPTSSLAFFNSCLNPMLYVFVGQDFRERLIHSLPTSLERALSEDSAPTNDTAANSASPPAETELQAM
Description: The ALX receptor agonistic activity of the compounds of formula (I) is determined in accordance with the following experimental method.
Intracellular Calcium Measurements:
Cells expressing recombinant human ALX receptor and the G-protein Gα16 (HEK293-hALXR-Gα16) were grown to 80% confluency in Growing Medium (GM). […] Stock solutions of test compounds were made up at a concentration of 10 mM in DMSO, and serially diluted in AB to concentrations required for activation dose response curves. WKYMVm (Phoenix Peptides) was used as a reference agonist. A FLIPR384 instrument (Molecular Devices) was operated according to the manufacturer's standard instructions, adding 4 μl of test compound dissolved at 10 mM in DMSO and diluted prior to the experiment in assay buffer to obtain the desired final concentration. Changes in fluorescence were monitored before and after the addition of test compounds at lex=488 nm and lem=540 nm. Emission peak values above base level after compounds addition were exported after base line subtraction. Values were normalized to high-level control (WKYMVm compound, 10 nM final concentration) after subtraction of the base line value (AB addition). The program XLlfit 3.0 (IDBS) was used to fit the data to a single site dose response curve of the equation (A+((B−A)/(1+((C/x)^D)))) and to calculate the EC50 values.

| Compound | pEC50 |
| --- | --- |
| CC(=O)c1cnc(Cn2cc(NC(=O)c3ncoc3-c3ccccc3)cn2)s1 [Example 435, 5-Phenyl-oxazole-4-carboxylic acid [1-(5-acetyl-thiazol-2-ylmethyl)-1H-pyrazol-4-yl]-amide] | 6.35 |
| CC(=O)CCCCn1cc(NC(=O)OCc2nc3ccccc3s2)cn1 [Example 462, [1-(5-Oxo-hexyl)-1H-pyrazol-4-yl]-carbamic acid benzothiazol-2-ylmethyl ester] | 7.37 |
| CC(=O)c1nc(Cn2cc(NC(=O)OCc3ccccc3Cl)cn2)co1 [Example 466, [1-(2-Acetyl-oxazol-4-ylmethyl)-1H-pyrazol-4-yl]-carbamic acid 2-chloro-benzyl ester] | 7.47 |
| CC(=O)c1ccc(Cn2ccc(NC(=O)OCc3cc(F)c(F)cc3F)n2)o1 [Example 24, [1-(5-Acetyl-furan-2-ylmethyl)-1H-pyrazol-3-yl]-carbamic acid 2,4,5-trifluoro-benzyl ester] | 7.48 |
| CC(F)(F)c1ccc(Cn2ccc(NC(=O)OCc3cccc(C(F)(F)F)c3)n2)o1 [Example 280, {1-[5-(1,1-Difluoro-ethyl)-furan-2-ylmethyl]-1H-pyrazol-3-yl}-carbamic acid 3-trifluoromethyl-benzyl ester] | 7.57 |
| CC(=O)CCCCn1ccc(NC(=O)/C=C/c2ccccc2C(F)(F)F)n1 [Example 181, (E)-N-[1-(5-Oxo-hexyl)-1H-pyrazol-3-yl]-3-(2-trifluoromethyl-phenyl)-acrylamide] | 7.17 |
| CC(=O)c1ccc(Cn2ccc(NC(=O)c3ncoc3-c3ccccc3)n2)s1 [Example 376, 5-Phenyl-oxazole-4-carboxylic acid [1-(5-acetyl-thiophen-2-ylmethyl)-1H-pyrazol-3-yl]-amide] | 7.13 |
| CC(=O)c1cnc(Cn2ccc(NC(=O)c3ncoc3-c3ccccc3)n2)o1 [Example 465, 5-Phenyl-oxazole-4-carboxylic acid [1-(5-acetyl-oxazol-2-ylmethyl)-1H-pyrazol-3-yl]-amide] | 7.14 |
| CC(F)(F)CCCCn1ccc(NC(=O)OCc2ccccc2Cl)n1 [Example 201, [1-(5,5-Difluoro-hexyl)-1H-pyrazol-3-yl]-carbamic acid 2-chloro-benzyl ester] | 6.81 |
| CC(=O)c1ccc(Cn2cc(NC(=O)c3nc(C4CC4)oc3-c3ccccc3)cn2)s1 [Example 401, 2-Cyclopropyl-5-phenyl-oxazole-4-carboxylic acid [1-(5-acetyl-thiophen-2-ylmethyl)-1H-pyrazol-4-yl]-amide] | 7.31 |
| CC(=O)c1ccc(Cn2cc(NC(=O)c3ncoc3-c3ccnc(F)c3)cn2)o1 [Example 412, 5-(2-Fluoro-pyridin-4-yl)-oxazole-4-carboxylic acid [1-(5-acetyl-furan-2-ylmethyl)-1H-pyrazol-4-yl]-amide] | 6.75 |
| CC(F)CCCCn1cc(NC(=O)OCc2ccccc2Cl)cn1 (centres unmarked) [Example 236, [1-(5-Fluoro-hexyl)-1H-pyrazol-4-yl]-carbamic acid 2-chloro-benzyl ester] | 6.93 |
| CC(=O)c1ccc(Cn2cc(NC(=O)c3nc(C)sc3-c3cccc(C)c3)cn2)s1 [Example 395, 2-Methyl-5-m-tolyl-thiazole-4-carboxylic acid [1-(5-acetyl-thiophen-2-ylmethyl)-1H-pyrazol-4-yl]-amide] | 6.77 |
| CC(=O)c1ccc(Cn2cc(NC(=O)c3ncoc3-c3ccc(C)cc3)cn2)o1 [Example 331, 5-p-Tolyl-oxazole-4-carboxylic acid [1-(5-acetyl-furan-2-ylmethyl)-1H-pyrazol-4-yl]-amide] | 7.07 |
| CC(F)(F)c1ccc(Cn2cc(NC(=O)OCc3ccccc3Cl)cn2)o1 [Example 199, {1-[5-(1,1-Difluoro-ethyl)-furan-2-ylmethyl]-1H-pyrazol-4-yl}-carbamic acid 2-chloro-benzyl ester] | 7.48 |
| CC(=O)CCCCn1cc(NC(=O)OC(C)c2ccccc2)cn1 (racemic) [Example 125, [1-(5-Oxo-hexyl)-1H-pyrazol-4-yl]-carbamic acid (RS)-1-phenyl-ethyl ester] | 7.16 |

| Compound | pEC50 |
| --- | --- |
| CC(F)(F)CCCCn1cc(NC(=O)c2ncoc2-c2ccccc2)cn1 [Example 204, 5-Phenyl-oxazole-4-carboxylic acid [1-(5,5-difluoro-hexyl)-1H-pyrazol-4-yl]-amide] | 6.71 |
| CC(=O)c1cc(Cn2cc(NC(=O)c3ncoc3-c3ccccc3)cn2)on1 [Example 362, 5-Phenyl-oxazole-4-carboxylic acid [1-(3-acetyl-isoxazol-5-ylmethyl)-1H-pyrazol-4-yl]-amide] | 5.83 |
| CC(=O)c1ccc(Cn2ccc(NC(=O)c3nc(C)oc3-c3cccc(-c4ccccc4)c3)n2)o1 [Example 354, 5-Biphenyl-3-yl-2-methyl-oxazole-4-carboxylic acid [1-(5-acetyl-furan-2-ylmethyl)-1H-pyrazol-3-yl]-amide] | 7.22 |
| O=C(Nc1cnn(Cc2ccc(C(=O)C3CC3)o2)c1)OCc1ccccc1Cl [Example 3, [1-(5-Cyclopropanecarbonyl-furan-2-ylmethyl)-1H-pyrazol-4-yl]-carbamic acid 2-chloro-benzyl ester] | 6.69 |
| CC(=O)c1nc(Cn2cc(NC(=O)OCc3ccccc3Cl)cn2)cs1 [Example 409, [1-(2-Acetyl-thiazol-4-ylmethyl)-1H-pyrazol-4-yl]-carbamic acid 2-chloro-benzyl ester] | 6.09 |
| CC(=O)c1cccc(Cn2cc(NC(=O)c3ncoc3-c3ccccc3)cn2)n1 [Example 364, 5-Phenyl-oxazole-4-carboxylic acid [1-(6-acetyl-pyridin-2-ylmethyl)-1H-pyrazol-4-yl]-amide] | 6.09 |
| CC(=O)c1csc(Cn2cc(NC(=O)OCc3ccccc3Cl)cn2)c1 [Example 442, [1-(4-Acetyl-thiophen-2-ylmethyl)-1H-pyrazol-4-yl]-carbamic acid 2-chloro-benzyl ester] | 7.03 |
| CC(F)(F)c1ccc(Cn2ccc(NC(=O)OCc3ccccc3Cl)n2)o1 [Example 197, {1-[5-(1,1-Difluoro-ethyl)-furan-2-ylmethyl]-1H-pyrazol-3-yl}-carbamic acid 2-chloro-benzyl ester] | 7.54 |
| Cc1ccc(F)c(COC(=O)Nc2ccn(CCCCC(C)(F)F)n2)c1F [Example 282, [1-(5,5-Difluoro-hexyl)-1H-pyrazol-3-yl]-carbamic acid 2,6-difluoro-3-methyl-benzyl ester] | 7.60 |
| CC(F)(F)c1ccc(Cn2cc(NC(=O)c3ncoc3-c3ccccc3)cn2)o1 [Example 200, 5-Phenyl-oxazole-4-carboxylic acid {1-[5-(1,1-difluoro-ethyl)-furan-2-ylmethyl]-1H-pyrazol-4-yl}-amide] | 7.34 |
| CC(=O)CCCCn1cc(NC(=O)/C=C/c2ccccc2Cl)cn1 [Example 157, (E)-3-(2-Chloro-phenyl)-N-[1-(5-oxo-hexyl)-1H-pyrazol-4-yl]-acrylamide] | 6.48 |
| CC(=O)c1csc(Cn2cc(NC(=O)/C=C/c3ccc(C(F)(F)F)cc3)cn2)n1 [Example 389, (E)-N-[1-(4-Acetyl-thiazol-2-ylmethyl)-1H-pyrazol-4-yl]-3-(4-trifluoromethyl-phenyl)-acrylamide] | 7.10 |
| CC(=O)c1ccc(Cn2cc(NC(=O)c3ncoc3-c3cccc(C(F)(F)F)n3)cn2)o1 [Example 419, 5-(6-Trifluoromethyl-pyridin-2-yl)-oxazole-4-carboxylic acid [1-(5-acetyl-furan-2-ylmethyl)-1H-pyrazol-4-yl]-amide] | 7.18 |
| CC(F)(F)c1csc(Cn2ccc(NC(=O)c3ncoc3-c3ccccc3)n2)n1 [Example 461, 5-Phenyl-oxazole-4-carboxylic acid {1-[4-(1,1-difluoro-ethyl)-thiazol-2-ylmethyl]-1H-pyrazol-3-yl}-amide] | 5.96 |
| CC(=O)c1ccc(Cn2ccc(NC(=O)c3ncoc3-c3cccc(-c4ccccc4)c3)n2)o1 [Example 356, 5-Biphenyl-3-yl-oxazole-4-carboxylic acid [1-(5-acetyl-furan-2-ylmethyl)-1H-pyrazol-3-yl]-amide] | 7.54 |
| CC(=O)CCCCn1ccc(NC(=O)OCc2ccc(F)c(F)c2)n1 [Example 169, [1-(5-Oxo-hexyl)-1H-pyrazol-3-yl]-carbamic acid 3,4-difluoro-benzyl ester] | 6.44 |
